pIC50: −log10 of the molar value.

The test deals with T1, Glycogen phosphorylase, muscle form (Oryctolagus cuniculus, UniProt P00489).
T1 sequence (P00489 whole entry): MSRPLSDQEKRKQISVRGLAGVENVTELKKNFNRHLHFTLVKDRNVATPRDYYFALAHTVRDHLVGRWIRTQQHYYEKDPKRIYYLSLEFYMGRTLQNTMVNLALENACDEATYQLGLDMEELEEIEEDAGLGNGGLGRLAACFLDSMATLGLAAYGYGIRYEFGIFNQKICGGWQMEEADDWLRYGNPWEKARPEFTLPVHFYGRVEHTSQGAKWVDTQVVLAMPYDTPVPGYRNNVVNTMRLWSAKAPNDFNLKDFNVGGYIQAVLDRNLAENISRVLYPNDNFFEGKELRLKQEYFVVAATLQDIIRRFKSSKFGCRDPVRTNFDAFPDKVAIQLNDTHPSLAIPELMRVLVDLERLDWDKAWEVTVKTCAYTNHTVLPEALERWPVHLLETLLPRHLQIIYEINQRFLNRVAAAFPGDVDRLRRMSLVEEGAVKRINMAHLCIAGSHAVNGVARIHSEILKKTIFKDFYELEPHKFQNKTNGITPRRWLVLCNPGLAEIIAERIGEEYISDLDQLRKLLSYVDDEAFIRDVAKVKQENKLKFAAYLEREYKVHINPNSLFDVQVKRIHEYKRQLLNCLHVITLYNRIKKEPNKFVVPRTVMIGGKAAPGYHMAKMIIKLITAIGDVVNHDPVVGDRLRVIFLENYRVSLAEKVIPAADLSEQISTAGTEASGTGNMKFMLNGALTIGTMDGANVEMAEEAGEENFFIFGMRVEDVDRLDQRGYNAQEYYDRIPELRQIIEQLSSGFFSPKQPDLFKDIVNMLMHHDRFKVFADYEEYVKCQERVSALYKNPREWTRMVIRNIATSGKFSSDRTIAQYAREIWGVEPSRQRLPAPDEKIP
Description: Enzyme Inhibition Assay. To be noted: pH 7.2; 22 °C. The procedure: The activity of the compounds is determined by measuring the inhibitory effect of the compounds in the direction of glycogen synthesis, the conversion of glucose-1-phosphate into glycogen with the release of inorganic phosphate, which was monitored using microplate reader (BIO-RAD). […] The IC50 values were estimated by fitting the inhibition data to a dose dependent curve using a logistic derivative equation.
For `C[C@H]1[C@H](C)CC[C@]2(C(=O)O)CC[C@]3(C)C(=CC[C@@H]4[C@@]5(C)CCC(=O)C(C)(C)C5CC[C@]43C)[C@H]12` (stereo partly drawn) [(1S,2R,4aS,6aS,6bR,12aR,12bR,14bS)-1,2,6a,6b,9,9,12a-heptamethyl-10-oxo-1,2,3,4,4a,5,6,6a,6b,7,8,8a,9,10,11,12,12a,12b,13,14b-icosahydropicene-4a-carboxylic acid], the pIC50 – broadly, the IC50 on a negative log10 scale, so that one unit is a factor of ten – is 4.24. `C[C@H]1[C@H](C)CC[C@]2(C(=O)O)CC[C@]3(C)C(=CC[C@@H]4[C@@]5(C)CC[C@@H](O)C(C)(C)C5CC[C@]43C)[C@H]12` (stereo partly drawn) [(1S,2R,4aS,6aS,6bR,10R,12aR,12bR,14bS)-10-hydroxy-1,2,6a,6b,9,9,12a-heptamethyl-1,2,3,4,4a,5,6,6a,6b,7,8,8a,9,10,11,12,12a,12b,13,14b-icosahydropicene-4a-carboxylic acid] had a pIC50 of 4.72. Against the preceding compound, the pIC50 is 0.48 log units higher. `CC1(C)C2CC[C@]3(C)[C@H](C(=O)C=C4[C@@H]5C[C@@](C)(C(=O)O)CC[C@]5(C)CC[C@]43C)[C@@]2(C)CC[C@@H]1O` (stereo partly drawn) [(2S,4aS,6aS,6bR,10S,12aS,12bR,14bR)-10-hydroxy-2,4a,6a,6b,9,9,12a-heptamethyl-13-oxo-1,2,3,4,4a,5,6,6a,6b,7,8,8a,9,10,11,12,12a,12b,13,14b-icosahydropicene-2-carboxylic acid] had a pIC50 of 4.18. This pIC50 lies 0.54 log units lower than the previous one. Regarding `CC1(C)CC[C@]2(C(=O)O[C@@H]3O[C@H](CO)[C@@H](O)[C@H](O)[C@H]3O)CC[C@]3(C)C(=CC[C@@H]4[C@@]5(C)CC[C@H](O)C(C)(C)C5CC[C@]43C)[C@@H]2C1` (stereo partly drawn) [(2S,3R,4S,5S,6R)-3,4,5-trihydroxy-6-(hydroxymethyl)oxan-2-yl (4aS,6aS,6bR,10S,12aR,12bR,14bS)-10-hydroxy-2,2,6a,6b,9,9,12a-heptamethyl-1,2,3,4,4a,5,6,6a,6b,7,8,8a,9,10,11,12,12a,12b,13,14b-icosahydropicene-4a-carboxylate], the pIC50 is 3.53. This pIC50 lies 0.65 log units lower than the previous one. For `C[C@H]1[C@H](C)CC[C@]2(C(=O)O)CC[C@]3(C)C(=CC[C@@H]4[C@@]5(C)CC[C@H](O)C(C)(C)C5CC[C@]43C)[C@H]12` (stereo partly drawn) [(1S,2R,4aS,6aS,6bR,10S,12aR,12bR,14bS)-10-hydroxy-1,2,6a,6b,9,9,12a-heptamethyl-1,2,3,4,4a,5,6,6a,6b,7,8,8a,9,10,11,12,12a,12b,13,14b-icosahydropicene-4a-carboxylic acid] the value was 5.05; for `C[C@H]1[C@H](C)CC[C@]2(C(=O)O[C@@H]3O[C@H](CO)[C@@H](O)[C@H](O)[C@H]3O)CC[C@]3(C)C(=CC[C@@H]4[C@@]5(C)C[C@@H](O)[C@H](O)C(C)(C)C5CC[C@]43C)[C@H]12` (stereo partly drawn) [(2S,3R,4S,5S,6R)-3,4,5-trihydroxy-6-(hydroxymethyl)oxan-2-yl (1S,2R,4aS,6aS,6bR,10R,11R,12aR,12bR,14bS)-10,11-dihydroxy-1,2,6a,6b,9,9,12a-heptamethyl-1,2,3,4,4a,5,6,6a,6b,7,8,8a,9,10,11,12,12a,12b,13,14b-icosahydropicene-4a-carboxylate], 3.97; for `CC1(C)C2CC[C@]3(C)[C@H](C(=O)C=C4[C@@H]5C[C@@](C)(C(=O)O)CC[C@]5(C)CC[C@]43C)[C@@]2(C)CC[C@@H]1O[C@H]1O[C@H](C(=O)O)[C@@H](O)[C@H](O)[C@H]1O[C@@H]1O[C@H](C(=O)O)[C@@H](O)[C@H](O)[C@H]1O` (stereo not given in full) [pentacyclic triterpene compound 7], 3.09. To `CC1(C)C2CC[C@]3(C)[C@H](CC=C4[C@@H]5C[C@@](C)(C(=O)O)CC[C@]5(C)CC[C@]43C)[C@@]2(C)CC[C@@H]1O` (stereo partly drawn) [(2S,4aS,6aS,6bR,10S,12aR,12bR,14bR)-10-hydroxy-2,4a,6a,6b,9,9,12a-heptamethyl-1,2,3,4,4a,5,6,6a,6b,7,8,8a,9,10,11,12,12a,12b,13,14b-icosahydropicene-2-carboxylic acid] belongs 4.09; to `CC1(C)CC[C@]2(C(=O)O)CC[C@]3(C)C(=CC[C@@H]4[C@@]5(C)CCC(=O)C(C)(C)C5CC[C@]43C)[C@@H]2C1` (stereo not given in full) [pentacyclic triterpene compound 6], 4.74; to `C[C@H]1[C@H](C)CC[C@]2(C(=O)O[C@@H]3O[C@H](CO)[C@@H](O)[C@H](O)[C@H]3O)CC[C@]3(C)C(=CC[C@@H]4[C@@]5(C)CC[C@H](O)C(C)(C)C5CC[C@]43C)[C@H]12` (stereo not given in full) [pentacyclic triterpene compound 19], 4.01.

For the origin of these results see BindingDB's records for doi:10.1021/jm8000949 (China Pharmaceutical University, 2008).
